The source of these data is ChEMBL document CHEMBL1155389, “Selectively nonselective kinase inhibition: striking the right balance” (J Med Chem, 2010).

The target of data set [1] is Tyrosine-protein kinase ABL1 (Homo sapiens, UniProt P00519).
Description: Inhibition of wild type Abl
In a further data set the target is Bcr/Abl fusion protein (Homo sapiens, UniProt P00519). Format: protein assay.
Data set [2] concerns the target Dual specificity tyrosine-phosphorylation-regulated kinase 1A (Homo sapiens, UniProt Q13627). The data set is described as follows: Inhibition of DYRK1A.
A short description of data set [3]: Inhibition of GSK3.
Data set [4] has as its target Cyclin-dependent kinase 5 (Homo sapiens, UniProt Q00535). Kind of data set: Inhibition of CDK5.
For data set [5], the target named is Mast/stem cell growth factor receptor Kit (Homo sapiens, UniProt P10721).
A further data set deals with T1, Dihydrofolate reductase (Homo sapiens, UniProt P00374).
T1 sequence (P00374 whole entry): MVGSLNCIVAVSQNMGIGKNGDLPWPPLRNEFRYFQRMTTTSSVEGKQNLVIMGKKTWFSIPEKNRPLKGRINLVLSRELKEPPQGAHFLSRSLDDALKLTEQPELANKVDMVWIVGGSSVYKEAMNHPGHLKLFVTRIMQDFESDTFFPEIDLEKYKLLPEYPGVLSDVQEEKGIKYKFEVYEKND
Kind of data set: Inhibition of DHFR.

Data set [6] deals with Vascular endothelial growth factor receptor 2 (Homo sapiens, UniProt P35968).
The nature of data set [7]: Inhibition of HDAC.
Data set [8] can be described thus: Inhibition of p38.
For data set [9], the target named is Mitogen-activated protein kinase 10 (Homo sapiens, UniProt P53779). Kind of data set: Inhibition of JNK3.
Data set [10] deals with Glycogen synthase kinase-3 beta (Homo sapiens, UniProt P49841). Kind of data set: Inhibition of GSK3-beta.
Data set [11] concerns the target Casein kinase I isoform alpha (Homo sapiens, UniProt P48729). The data set is described as follows: Inhibition of CK1.
Data set [12] deals with Cyclin-dependent kinase 1 (Homo sapiens, UniProt P06493). The data set is described as follows: Inhibition of CDK1.
The nature of data set [13]: Inhibition of PDGFR.
In data set [14] the target is RAC-alpha serine/threonine-protein kinase (Homo sapiens, UniProt P31749).
The target of data set [15] is Receptor tyrosine-protein kinase erbB-2 (Homo sapiens, UniProt P04626).
The target of data set [16] is Insulin-like growth factor 1 receptor (Homo sapiens, UniProt P08069).
Sequence of Insulin-like growth factor 1 receptor (P08069 31-736 limits assumed): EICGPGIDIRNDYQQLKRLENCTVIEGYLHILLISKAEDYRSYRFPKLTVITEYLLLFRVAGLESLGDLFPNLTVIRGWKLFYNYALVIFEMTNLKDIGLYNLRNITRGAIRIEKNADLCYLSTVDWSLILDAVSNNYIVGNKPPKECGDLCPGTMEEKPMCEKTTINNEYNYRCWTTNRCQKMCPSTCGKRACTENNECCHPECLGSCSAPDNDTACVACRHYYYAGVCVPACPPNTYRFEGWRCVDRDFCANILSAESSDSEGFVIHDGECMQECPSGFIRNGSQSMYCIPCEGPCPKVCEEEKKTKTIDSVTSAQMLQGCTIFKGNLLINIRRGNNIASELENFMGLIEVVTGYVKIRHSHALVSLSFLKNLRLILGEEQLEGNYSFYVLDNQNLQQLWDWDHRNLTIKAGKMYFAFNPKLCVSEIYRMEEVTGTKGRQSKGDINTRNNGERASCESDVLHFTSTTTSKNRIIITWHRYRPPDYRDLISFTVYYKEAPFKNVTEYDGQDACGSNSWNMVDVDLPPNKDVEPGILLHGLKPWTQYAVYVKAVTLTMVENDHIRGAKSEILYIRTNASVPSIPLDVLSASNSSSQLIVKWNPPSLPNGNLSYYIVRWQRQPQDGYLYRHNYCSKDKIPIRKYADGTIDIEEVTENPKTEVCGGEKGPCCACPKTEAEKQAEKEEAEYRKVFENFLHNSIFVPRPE
Sequence of Insulin-like growth factor 1 receptor (P08069 741-1367 limits assumed): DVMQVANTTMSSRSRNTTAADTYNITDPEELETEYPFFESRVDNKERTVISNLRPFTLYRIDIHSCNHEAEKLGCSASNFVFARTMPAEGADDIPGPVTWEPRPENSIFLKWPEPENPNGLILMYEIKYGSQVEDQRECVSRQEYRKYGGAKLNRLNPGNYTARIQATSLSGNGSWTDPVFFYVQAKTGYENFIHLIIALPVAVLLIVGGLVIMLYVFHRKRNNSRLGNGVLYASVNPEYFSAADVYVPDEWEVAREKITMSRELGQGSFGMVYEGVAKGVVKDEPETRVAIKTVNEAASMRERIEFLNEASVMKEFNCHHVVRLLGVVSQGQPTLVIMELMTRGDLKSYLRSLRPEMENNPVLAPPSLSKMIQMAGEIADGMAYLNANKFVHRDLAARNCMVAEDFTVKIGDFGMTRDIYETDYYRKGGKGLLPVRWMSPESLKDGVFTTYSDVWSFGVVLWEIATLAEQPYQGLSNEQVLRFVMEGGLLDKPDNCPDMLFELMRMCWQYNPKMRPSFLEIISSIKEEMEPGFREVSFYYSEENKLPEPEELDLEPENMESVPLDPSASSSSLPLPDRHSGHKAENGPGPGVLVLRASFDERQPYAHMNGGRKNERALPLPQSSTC
Data set [17] has as its target Epidermal growth factor receptor (Homo sapiens, UniProt P00533).
Data set [18] can be described thus: Oral bioavailability in mouse. As to conditions: in vivo. It is filed as ADME, organism-based.
The target in data set [19] is Voltage-gated inwardly rectifying potassium channel KCNH2 (Homo sapiens, UniProt Q12809). The data set is described as follows: Inhibition of ERG.
Data set [20] deals with Proto-oncogene tyrosine-protein kinase Src (Homo sapiens, UniProt P12931).
Data set [21] concerns the target Nitric oxide synthase, inducible (Homo sapiens, UniProt P35228). Kind of data set: Inhibition of iNOS.

Each structure is given as a SMILES string. Bounds are passed on as bounds.

Sequence of Bcr/Abl fusion protein (P00519 whole entry, the tested form may be a part): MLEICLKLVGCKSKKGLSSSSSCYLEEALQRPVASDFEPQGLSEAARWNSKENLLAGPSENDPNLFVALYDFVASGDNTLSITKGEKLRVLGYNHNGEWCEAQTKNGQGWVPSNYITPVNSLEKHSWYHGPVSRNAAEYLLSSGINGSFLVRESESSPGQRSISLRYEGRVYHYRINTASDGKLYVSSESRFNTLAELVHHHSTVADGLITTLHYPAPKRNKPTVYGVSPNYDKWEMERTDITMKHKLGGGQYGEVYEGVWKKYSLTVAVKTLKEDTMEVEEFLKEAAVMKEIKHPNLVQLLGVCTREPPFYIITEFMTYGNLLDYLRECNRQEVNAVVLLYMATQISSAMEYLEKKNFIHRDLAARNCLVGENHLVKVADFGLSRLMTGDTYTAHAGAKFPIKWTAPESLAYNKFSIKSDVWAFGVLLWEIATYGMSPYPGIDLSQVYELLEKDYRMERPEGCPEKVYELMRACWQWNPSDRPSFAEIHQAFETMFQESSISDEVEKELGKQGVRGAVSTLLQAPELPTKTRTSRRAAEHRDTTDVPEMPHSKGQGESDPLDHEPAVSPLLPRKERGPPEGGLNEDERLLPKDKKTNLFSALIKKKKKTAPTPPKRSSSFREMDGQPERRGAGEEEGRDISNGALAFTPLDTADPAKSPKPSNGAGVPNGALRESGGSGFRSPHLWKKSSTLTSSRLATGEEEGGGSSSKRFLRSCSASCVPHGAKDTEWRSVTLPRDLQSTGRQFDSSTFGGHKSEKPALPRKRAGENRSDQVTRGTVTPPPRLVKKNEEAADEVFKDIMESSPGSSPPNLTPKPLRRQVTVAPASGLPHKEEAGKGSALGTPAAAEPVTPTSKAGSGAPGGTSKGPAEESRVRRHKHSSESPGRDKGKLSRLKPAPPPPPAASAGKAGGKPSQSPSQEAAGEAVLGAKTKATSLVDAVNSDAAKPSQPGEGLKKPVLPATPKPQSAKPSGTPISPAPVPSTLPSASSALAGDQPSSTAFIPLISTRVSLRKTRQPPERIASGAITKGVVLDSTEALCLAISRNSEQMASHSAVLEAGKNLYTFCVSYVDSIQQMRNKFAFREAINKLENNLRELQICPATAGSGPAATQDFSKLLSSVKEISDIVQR
Sequence of Bcr/Abl fusion protein (P11274 whole entry, further chain, the tested form may be a part): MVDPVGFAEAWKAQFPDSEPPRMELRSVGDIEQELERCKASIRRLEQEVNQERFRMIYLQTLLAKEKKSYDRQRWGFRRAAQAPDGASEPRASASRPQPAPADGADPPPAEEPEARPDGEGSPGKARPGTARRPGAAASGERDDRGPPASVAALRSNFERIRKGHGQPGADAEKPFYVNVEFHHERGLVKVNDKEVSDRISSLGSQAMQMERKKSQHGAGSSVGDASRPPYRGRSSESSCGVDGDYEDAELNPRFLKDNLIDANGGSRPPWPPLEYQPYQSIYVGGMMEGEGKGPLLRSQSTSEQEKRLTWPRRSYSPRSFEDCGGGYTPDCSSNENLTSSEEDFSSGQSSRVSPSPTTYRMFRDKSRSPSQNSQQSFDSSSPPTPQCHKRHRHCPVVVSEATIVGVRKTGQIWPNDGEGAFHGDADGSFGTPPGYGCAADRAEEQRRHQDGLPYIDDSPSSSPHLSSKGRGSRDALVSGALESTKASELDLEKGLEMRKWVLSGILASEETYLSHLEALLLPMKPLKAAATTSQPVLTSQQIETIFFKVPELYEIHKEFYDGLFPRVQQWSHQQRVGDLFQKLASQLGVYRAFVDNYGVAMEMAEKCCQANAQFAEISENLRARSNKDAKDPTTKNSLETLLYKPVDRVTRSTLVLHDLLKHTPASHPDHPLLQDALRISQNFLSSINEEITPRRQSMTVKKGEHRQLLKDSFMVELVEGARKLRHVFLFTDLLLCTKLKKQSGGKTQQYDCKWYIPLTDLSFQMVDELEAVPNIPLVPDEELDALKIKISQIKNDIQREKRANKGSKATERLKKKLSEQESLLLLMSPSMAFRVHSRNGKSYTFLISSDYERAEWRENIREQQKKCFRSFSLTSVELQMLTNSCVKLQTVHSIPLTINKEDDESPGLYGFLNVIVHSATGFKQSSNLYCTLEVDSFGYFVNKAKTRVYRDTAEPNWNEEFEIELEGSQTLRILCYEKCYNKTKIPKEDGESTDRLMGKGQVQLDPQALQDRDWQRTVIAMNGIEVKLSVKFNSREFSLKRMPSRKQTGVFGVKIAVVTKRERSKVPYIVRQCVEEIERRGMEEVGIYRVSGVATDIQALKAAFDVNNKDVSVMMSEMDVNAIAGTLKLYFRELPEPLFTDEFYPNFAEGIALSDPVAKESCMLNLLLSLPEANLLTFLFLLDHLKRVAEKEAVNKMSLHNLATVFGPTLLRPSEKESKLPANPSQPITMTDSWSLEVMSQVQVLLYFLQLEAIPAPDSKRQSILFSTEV
Sequence of Epidermal growth factor receptor (P00533 whole entry): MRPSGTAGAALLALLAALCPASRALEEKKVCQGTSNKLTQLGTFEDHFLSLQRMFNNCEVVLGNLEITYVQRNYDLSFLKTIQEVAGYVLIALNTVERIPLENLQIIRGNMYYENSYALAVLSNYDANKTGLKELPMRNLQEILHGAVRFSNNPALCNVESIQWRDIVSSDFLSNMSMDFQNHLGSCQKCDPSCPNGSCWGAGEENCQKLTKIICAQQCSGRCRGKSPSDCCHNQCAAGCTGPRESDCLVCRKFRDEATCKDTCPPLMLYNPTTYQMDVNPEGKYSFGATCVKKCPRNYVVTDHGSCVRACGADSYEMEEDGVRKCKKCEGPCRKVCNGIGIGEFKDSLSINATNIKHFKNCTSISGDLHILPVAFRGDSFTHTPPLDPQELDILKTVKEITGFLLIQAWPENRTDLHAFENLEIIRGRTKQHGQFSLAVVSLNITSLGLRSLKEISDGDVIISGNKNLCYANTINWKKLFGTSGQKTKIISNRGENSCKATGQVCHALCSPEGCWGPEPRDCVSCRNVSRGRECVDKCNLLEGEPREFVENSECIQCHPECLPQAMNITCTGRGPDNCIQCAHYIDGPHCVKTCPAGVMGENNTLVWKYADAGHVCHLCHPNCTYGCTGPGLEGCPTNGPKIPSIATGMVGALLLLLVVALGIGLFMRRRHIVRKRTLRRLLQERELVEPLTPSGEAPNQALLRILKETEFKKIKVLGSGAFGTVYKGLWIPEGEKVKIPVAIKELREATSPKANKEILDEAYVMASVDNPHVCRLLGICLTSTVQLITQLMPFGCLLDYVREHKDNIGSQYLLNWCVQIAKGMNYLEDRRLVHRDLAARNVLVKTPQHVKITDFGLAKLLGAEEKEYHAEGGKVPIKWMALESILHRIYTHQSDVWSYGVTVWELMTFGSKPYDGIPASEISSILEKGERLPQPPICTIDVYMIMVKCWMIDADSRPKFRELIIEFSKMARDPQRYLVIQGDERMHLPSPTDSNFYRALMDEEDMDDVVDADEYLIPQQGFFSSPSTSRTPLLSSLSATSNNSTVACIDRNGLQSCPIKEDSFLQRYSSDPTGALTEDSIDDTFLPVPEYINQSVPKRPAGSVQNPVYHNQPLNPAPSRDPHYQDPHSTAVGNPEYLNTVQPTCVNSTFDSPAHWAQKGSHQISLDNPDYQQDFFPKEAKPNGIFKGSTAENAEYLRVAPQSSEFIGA
Sequence of Tyrosine-protein kinase ABL1 (P00519 whole entry, the tested form may be a part): as the sequence (P00519 whole entry, the tested form may be a part) above
Description for Bcr/Abl fusion protein: Inhibition of wild type Bcr-Abl

As for `Cc1cn(-c2cc(NC(=O)c3ccc(C)c(/C=C/N4CNc5c(NC6CC6)ncnc54)c3)cc(C(F)(F)F)c2)cn1`, the IC50 in data set [1] was 25 nM; against Bcr/Abl fusion protein it was 8 nM.

Take `N#Cc1c(N)cc2[nH]nc(N)c2c1-c1ccccc1`: the figures for the IC50 in data set [2], in [3] and in data set [4] were 410 nM, 15000 nM and 11000 nM, respectively.

On to `Cc1ccc(-c2ccnc(Nc3cc(NC(=O)c4ccc(CN5CCN(C)CC5)cc4)ccc3C)n2)cn1`, for which the figures for the IC50 (on Bcr/Abl fusion protein; in data set [5]) were 11000 nM and 43 nM, respectively.

With `C/C(=C/c1coc2nc(N)nc(N)c12)c1cccc2ccccc12`, the values for the IC50 (at Dihydrofolate reductase; in data set [6]) were 10000 nM and 2000 nM, respectively.

Regarding `Cc1ccc(NC(=O)c2ccc(/C=C/C(=O)NO)cc2)cc1Nc1nc(-c2cccnc2)cs1`, the results for the half-inhibitory concentration (IC50) (on Bcr/Abl fusion protein; in [7]) were 2700 nM and 80 nM, respectively.

As for `c1ccc(-c2noc(CN3CCCCC3)c2-c2ccnc(NC3CCCCC3)n2)cc1`, the figures for the IC50 in data set [8] and in data set [9] were 2 nM and 26 nM, respectively.

For `CCC(CO)Nc1nc(Nc2cccc(-c3ccccn3)c2)c2ncn(C(C)C)c2n1` (stereo unspecified), the IC50 in data set [10] worked out at 4100 nM; in data set [11], 14 nM; in [12], 220 nM.

`Nc1ncnc2c1c(-c1cnc3[nH]ccc3c1)nn2C1CCCC1`: the midpoint of inhibition in [13], the IC50, lay at 2 nM.

Compound `Cn1nnnc1-c1cnc(-c2ccc(CN3CCC(n4c(=O)[nH]c5ccccc54)CC3)cc2)c(-c2ccccc2)c1` came in with an IC50 in [14] of 273 nM.

As to `COCCCN1CCC([C@H]2CC[C@H](n3nc(-c4ccc5nc(Cc6ccccc6Cl)[nH]c5c4)c4c(N)ncnc43)CC2)CC1`, the results for the IC50 in [15], in [16] and in [17] were 54 nM, 81 nM and 58 nM, respectively.

For `COc1ccccc1Cc1nc2ccc(-c3nn([C@H]4CC[C@H](C5CCN(C)CC5)CC4)c4ncnc(N)c34)cc2[nH]1`, in data set [18], the bioavailability was determined as 12%. For the same compound, the IC50 in data set [16] was found to be 81 nM; in [17] it was 58 nM.

In data set [19], `c1ccc(-c2cc3c(ccn4cnnc34)nc2-c2ccc(CN3CCC(c4nnc(-c5ccccn5)[nH]4)CC3)cc2)cc1` displayed an IC50 of more than 10000 nM.

Turning to `Cc1cc2c(Nc3ccc4nc(N)sc4c3)c(C#N)cnc2cc1OCCN1CCCCC1`, the IC50 was 15 nM in data set [20] and 313000 nM in data set [21].

Take `C#Cc1cccc(Nc2ncnc3cc(OC)c(OCCCCCCC(=O)NO)cc23)c1` [CUDC-101]: half-maximal inhibition in [7] (IC50) required 4.4 nM.

In the case of `Cc1ccc(NC(=O)c2ccc(CN3CCN(C)CC3)cc2)cc1Nc1nccc(-c2cccnc2)n1` [IMATINIB], the values for the half-maximal inhibitory concentration (IC50) in data set [13] and in [7] were 39 nM and more than 100 nM, respectively.

`Cc1cn(-c2cc(NC(=O)c3ccc(C)c(Nc4nccc(-c5cccnc5)n4)c3)cc(C(F)(F)F)c2)cn1` [NILOTINIB] gave an IC50 in [13] of 25 nM. That is a double-digit nanomolar value.

The term IC50 denotes the point on the concentration scale where inhibition reaches its midpoint. The low end stands for greater potency, the high end for weaker potency. For orientation: bioavailability means dose-corrected exposure relative to a reference, in per cent. A high value points to good availability.
